The compounds below were run on LNCaP cells (assay: LNCaP cell viability assay (CellTiter-Glo)). Conditions: Homo sapiens, 72 h; LNCaP prostate cancer cell viability inhibition, 3 days, CellTiter-Glo (Table 2).
Type: cell-based
Experimental: LNCaP cells seeded in 96-well plates were treated with 10 μM GNE-781 or selected bivalent compounds, i.e. P-001, P-002, and P-019, following a 12-point 3-fold serial dilution. Three days after treatment, cell viability was determined using the CellTiter-Glo kit (Promega) following manufacturer's instructions. Cell viability was normalized to the mean values of 3 replicates of untreated cells. Dose-dependent response was analyzed following the least-squares non-linear regression method using the GraphPad Prism 5.0 software.
LNCaP cells were treated with GNE-781 or selected bivalent compounds for 3 days at indicated concentrations following a 3-fold serial dilution.
Cells were seeded at a density of 5000 cells per well in 96-well assay plates and treated with test compounds following a 12-point 3-fold serial dilution. Three days later, cell viability was determined using the CellTiter-Glo assay kit according to the manufacturer's instructions. The dose-response curves were determined and IC50 values were calculated using the GraphPad Prism software following a nonlinear regression (least squares fit) method.

Row | IC50 | SMILES
1 | 105 nM | CNC(=O)N1CCc2c(c(N3CCCc4cc(-c5cnn(C)c5)c(C(F)F)cc43)nn2C2CCN(C(=O)CNc3cccc4c3C(=O)N(C3CCC(=O)NC3=O)C4=O)CC2)C1 (stereo not drawn) [P-013]

Same assay, conditions: Homo sapiens, 72 h; LNCaP prostate cancer cell viability inhibition, 3 days, CellTiter-Glo (Table 3)

Row | IC50 | SMILES
2 | > 10000 nM | CNC(=O)N1CCc2c(c(N3CCCc4cc(-c5cnn(CC(=O)NCCOCCC(=O)N[C@H](C(=O)N6C[C@H](O)CC6C(=O)NCc6ccc(-c7scnc7C)cc6)C(C)(C)C)c5)c(C(F)F)cc43)nn2C2CCOCC2)C1 (stereo in doubt) [P-074, 3-(7-(Difluoromethyl)-6-(1-(2-((2-(3-(((S)-1-((2S,4R)-4-hydroxy-2-((4-(4-methylthiazol-5-yl)benzyl)carbamoyl)pyrrolidin-1-yl)-3,3-dimethyl-1-oxobutan-2-yl)amino)-3-oxopropoxy)ethyl)amino)-2-oxoethyl)-1H-pyrazol-4-yl)-3,4-dihydroquinolin-1(2H)-yl)-N-methyl-1-(tetrahydro-2H-pyran-4-yl)-1,4,6,7-tetrahydro-5H-pyrazolo[4,3-c]pyridine-5-carboxamide]
3 | > 10000 nM | CNC(=O)N1CCc2c(c(N3CCCc4cc(-c5cnn(CC(=O)NCCOCCOCCOCCOCCOCCC(=O)N[C@H](C(=O)N6C[C@H](O)CC6C(=O)NCc6ccc(-c7scnc7C)cc6)C(C)(C)C)c5)c(C(F)F)cc43)nn2C2CCOCC2)C1 (stereo in doubt) [P-082, 3-(7-(Difluoromethyl)-6-(1-((S)-23-((2S,4R)-4-hydroxy-2-((4-(4-methylthiazol-5-yl)benzyl)carbamoyl)pyrrolidine-1-carbonyl)-24,24-dimethyl-2,21-dioxo-6,9,12,15,18-pentaoxa-3,22-diazapentacosyl)-1H-pyrazol-4-yl)-3,4-dihydroquinolin-1(2H)-yl)-N-methyl-1-(tetrahydro-2H-pyran-4-yl)-1,4,6,7-tetrahydro-5H-pyrazolo[4,3-c]pyridine-5-carboxamide]
4 | > 10000 nM | CNC(=O)N1CCc2c(c(N3CCCc4cc(-c5cnn(CC(=O)NCCOCCOCC(=O)N[C@H](C(=O)N6C[C@H](O)CC6C(=O)NCc6ccc(-c7scnc7C)cc6)C(C)(C)C)c5)c(C(F)F)cc43)nn2C2CCOCC2)C1 (stereo in doubt) [P-083, 3-(7-(Difluoromethyl)-6-(1-((S)-13-((2S,4R)-4-hydroxy-2-((4-(4-methylthiazol-5-yl)benzyl)carbamoyl)pyrrolidine-1-carbonyl)-14,14-dimethyl-2,11-dioxo-6,9-dioxa-3,12-diazapentadecyl)-1H-pyrazol-4-yl)-3,4-dihydroquinolin-1(2H)-yl)-N-methyl-1-(tetrahydro-2H-pyran-4-yl)-1,4,6,7-tetrahydro-5H-pyrazolo[4,3-c]pyridine-5-carboxamide]
5 | 228 nM | CNC(=O)N1CCc2c(c(N3CCCc4cc(-c5cnn(C)c5)c(C(F)F)cc43)nn2C2CCN(C(=O)CCCCC#Cc3cccc4c3C(=O)N(C3CCC(=O)NC3=O)C4)CC2)C1 (stereo not drawn) [P-094, 3-(7-(Difluoromethyl)-6-(1-methyl-1H-pyrazol-4-yl)-3,4-dihydroquinolin-1(2H)-yl)-1-(1-(7-(2-(2,6-dioxopiperidin-3-yl)-3-oxoisoindolin-4-yl)hept-6-ynoyl)piperidin-4-yl)-N-methyl-1,4,6,7-tetrahydro-5H-pyrazolo[4,3-c]pyridine-5-carboxamide]
6 | 1070 nM | CNC(=O)N1CCc2c(c(N3CCCc4cc(-c5cnn(C)c5)c(C(F)F)cc43)nn2C2CCN(CCCCCC#Cc3cccc4c3C(=O)N(C3CCC(=O)NC3=O)C4=O)CC2)C1 (stereo not drawn) [P-098, 3-(7-(Difluoromethyl)-6-(1-methyl-1H-pyrazol-4-yl)-3,4-dihydroquinolin-1(2H)-yl)-1-(1-(7-(2-(2,6-dioxopiperidin-3-yl)-1,3-dioxoisoindolin-4-yl)hept-6-yn-1-yl)piperidin-4-yl)-N-methyl-1,4,6,7-tetrahydro-5H-pyrazolo[4,3-c]pyridine-5-carboxamide]
7 | > 1000 nM | CNC(=O)N1CCc2c(c(N3CCCc4cc(-c5cnn(C)c5)c(C(F)F)cc43)nn2C2CCN(C(=O)CN3CCC(Nc4cccc5c4C(=O)N(C4CCC(=O)NC4=O)C5=O)CC3)CC2)C1 (stereo not drawn) [P-101, 3-(7-(Difluoromethyl)-6-(1-methyl-1H-pyrazol-4-yl)-3,4-dihydroquinolin-1(2H)-yl)-1-(1-(2-(4-((2-(2,6-dioxopiperidin-3-yl)-1,3-dioxoisoindolin-4-yl)amino)piperidin-1-yl)acetyl)piperidin-4-yl)-N-methyl-1,4,6,7-tetrahydro-5H-pyrazolo[4,3-c]pyridine-5-carboxamide]
8 | 146 nM | CNC(=O)N1CCc2c(c(N3CCCc4cc(-c5cnn(C)c5)c(C(F)F)cc43)nn2C2CCN(C(=O)CN3CCC(C#Cc4cccc5c4C(=O)N(C4CCC(=O)NC4=O)C5=O)CC3)CC2)C1 (stereo not drawn) [P-103, 3-(7-(Difluoromethyl)-6-(1-methyl-1H-pyrazol-4-yl)-3,4-dihydroquinolin-1(2H)-yl)-1-(1-(2-(4-((2-(2,6-dioxopiperidin-3-yl)-1,3-dioxoisoindolin-4-yl)ethynyl)piperidin-1-yl)acetyl)piperidin-4-yl)-N-methyl-1,4,6,7-tetrahydro-5H-pyrazolo[4,3-c]pyridine-5-carboxamide]
9 | > 500 nM | CC(=O)N1CCc2c(c(N3CCCc4cc(-c5cnn(C)c5)c(C(F)F)cc43)nn2C2CCN(C3CCN(CCOc4cccc5c4C(=O)N(C4CCC(=O)NC4=O)C5=O)CC3)CC2)C1 (stereo not drawn) [P-134, 4-(2-(4-(5-Acetyl-3-(7-(difluoromethyl)-6-(1-methyl-1H-pyrazol-4-yl)-3,4-dihydroquinolin-1(2H)-yl)-4,5,6,7-tetrahydro-1H-pyrazolo[4,3-c]pyridin-1-yl)-[1,4′-bipiperidin]-1′-yl)ethoxy)-2-(2,6-dioxopiperidin-3-yl)isoindoline-1,3-dione]
10 | > 500 nM | CC(=O)N1CCc2c(c(N3CCCc4cc(-c5cnn(C)c5)c(C(F)F)cc43)nn2C2CCN(CCCCCC(=O)Nc3cccc4c3C(=O)N(C3CCC(=O)NC3=O)C4=O)CC2)C1 (stereo not drawn) [P-136, 6-(4-(5-Acetyl-3-(7-(difluoromethyl)-6-(1-methyl-1H-pyrazol-4-yl)-3,4-dihydroquinolin-1(2H)-yl)-4,5,6,7-tetrahydro-1H-pyrazolo[4,3-c]pyridin-1-yl)piperidin-1-yl)-N-(2-(2,6-dioxopiperidin-3-yl)-1,3-dioxoisoindolin-4-yl)hexanamide]
11 | > 500 nM | CNC(=O)N1CCc2c(c(N3CCCc4cc(-c5cnn(C)c5)c(C(F)F)cc43)nn2C2CCN(C(=O)CN3CCN(Cc4cccc5c4C(=O)N(C4CCC(=O)NC4=O)C5=O)CC3)CC2)C1 (stereo not drawn) [P-137, 3-(7-(Difluoromethyl)-6-(1-methyl-1H-pyrazol-4-yl)-3,4-dihydroquinolin-1(2H)-yl)-1-(1-(2-(4-((2-(2,6-dioxopiperidin-3-yl)-1,3-dioxoisoindolin-4-yl)methyl)piperazin-1-yl)acetyl)piperidin-4-yl)-N-methyl-1,4,6,7-tetrahydro-5H-pyrazolo[4,3-c]pyridine-5-carboxamide]
12 | > 500 nM | CC(=O)N1CCc2c(c(N3CCCc4cc(-c5cnn(C)c5)c(C(F)F)cc43)nn2C2CCN(C(=O)CN3CCN(Cc4cccc5c4C(=O)N(C4CCC(=O)NC4=O)C5=O)CC3)CC2)C1 (stereo not drawn) [P-138, 4-((4-(2-(4-(5-Acetyl-3-(7-(difluoromethyl)-6-(1-methyl-1H-pyrazol-4-yl)-3,4-dihydroquinolin-1(2H)-yl)-4,5,6,7-tetrahydro-1H-pyrazolo[4,3-c]pyridin-1-yl)piperidin-1-yl)-2-oxoethyl)piperazin-1-yl)methyl)-2-(2,6-dioxopiperidin-3-yl)isoindoline-1,3-dione]
